BindingDB's records for patent US11407738 (Achillion Pharmaceuticals, 2022)

Target: Complement factor D (Homo sapiens, UniProt P00746)
Assay: Human Factor D Assay
Method: Human Factor D (purified from human serum, Complement Technology, Inc.) at 80 nM final concentration is incubated with test compound at various concentrations for 5 min at room temperature in 50 mM Tris, 1M NaCl, pH 7.5. A synthetic substrate Z-L-Lys-SBzl and DTNB (Ellman's reagent) are added to final concentrations of 100 μM each. […] IC50 values are calculated by nonlinear regression of complement Factor D reaction rates as a function of test compound concentration.

Complement factor D, sequence (P00746 whole entry): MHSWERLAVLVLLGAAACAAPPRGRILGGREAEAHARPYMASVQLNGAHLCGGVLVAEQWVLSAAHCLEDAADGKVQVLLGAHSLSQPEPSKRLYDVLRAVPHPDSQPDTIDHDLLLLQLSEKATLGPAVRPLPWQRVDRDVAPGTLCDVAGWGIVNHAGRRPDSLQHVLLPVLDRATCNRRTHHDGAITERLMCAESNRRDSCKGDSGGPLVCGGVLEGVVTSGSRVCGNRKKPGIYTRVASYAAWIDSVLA

SMILES: CC(=O)c1nn(CC(=O)N2C[C@H](F)C[C@H]2C(=O)NC2CCN(C(=O)c3cn[nH]c3)CC2)c2ccc(-c3cnc(C)nc3)cc12 [US11407738, Example 00330]
- IC50: in the range around 5.5 µM
